Assay results: patent publication US8241607B2, “Use of fructose-based compounds for the diagnosis of cancer” (priority 2005, dated 2012)
“Also recorded” adds a separate entry of the source.

Test system: PANC-1 cells
Test: Inhibition of PANC-1 proliferation by oxythiamine (MTS assay)
Type: cell-based
Conditions: oxythiamine 0.5 mM, 72 h
Method: FIG. 35 depicts inhibition of pancreatic cancer PANC-1 cell proliferation by incubation with the transketolase inhibitor, oxythiamine (0.5-2 mM) for 72 h in accordance with an embodiment of the present invention. Proliferative rates were measured using the MTS proliferation assay.
The inventors believe that fructose-treatment of pancreatic cancer cells led to an increase in TKK-driven nucleic acid synthesis, and thus fructose-treatment would result in an increase in either PANC-1 TKK expression and/or activity in comparison to equivalent glucose concentrations. Western blot analysis on protein lysates derived from fructose-, and glucose-treated PANC-1 cells were performed (5.5 mM fructose, and glucose for 24, and 48 h as per previous protocol) using a specific TKK antibody, and compared TKK expression in the fructose-, and glucose-treated PANC-1 cells. As depicted in FIG. 33, TKK expression at 24 h, and 48 h in protein lysates derived from 5.5 mM glucose-treated PANC-1 cells was increased in comparison to expression in 2 mM glucose-treated cells. […] After gentle mixing the absorbance of the mixture was measured at 10 min intervals for 2 h at 340 nm. Transketolase activity was then derived from the difference in absorbance at 10, and 80 minutes, and expressed as nmol/min/million cells. […] Pancreatic cancer proliferation rates were then measured using the MTS assay (FIG. 35). […]

## Cc1ncc(C[n+]2csc(CCO)c2C)c(=O)[nH]1 [oxythiamine]
5.5 mM fructose
  effect on fructose-mediated increase in pancreatic cancer cell proliferation: virtually abolished; also recorded: almost completely abrogate
  effect on glucose-induced and fructose-induced PANC-1 proliferation: inhibited glucose-induced and fructose-induced PANC-1 proliferation
